Measured values: patent US6642003B2, “Human glucose-dependent insulin-secreting cell line” (Cedars-Sinai Medical Center, priority 2001, dated 2003)

What was measured:
[1] = tested on: ARIP cells; assay: RT-PCR of islet β-cell specific transcripts, ARIP cells; assay type: cell-based, rat
Experimental: (§1) After the treatment of ARIP and PANC-1 cells with GLP-1, Exendin-9, or vehicle, for the described length of time and the various doses, the culture medium was removed and the cells were washed (twice) with serum-free medium. Total RNA was isolated using the TRiazol-method (Gibco-BRL), and treated with DNase (Amplification Grade, GibcoBRL) in 20 mmol/l Tris-HCL (pH 8.4), 2 mmol/l MgCl2, and 50 mmol/l KCl to remove any traces of contaminating genomic DNA. RNA (2.5 μg) was then subjected to reverse transcription (RT reagents; Promega; Madison, Wis.). RT-PCR was undertaken in a volume of 50 μl of buffer containing 50 mmol/l KCl, 10 mmol/l Tris-HCl, 3.5 mmol/l MgCl2, 200 μmol/l each dNTPs, and 0.4 μmol/l each of sense and antisense primers to rat or human insulin (depending on the specific cell from which the RNA was extracted). Amplification was performed for 30 cycles at the denaturing temperature of 94° C. for 1 min, annealing temperature of 60° C. for 45 sec, and an extension temperature of 72° C. for 1 min. […] These included more irregular and variable cell shapes, with a cytoplasm less homogenous and “rougher” in appearance than control culture.
(§2) Treatment with GLP-1 induces the differentiation of ductal epithelial cells into insulin-producing cells. FIG. 2 illustrates a series of cell cultures grown with or without GLP-1 (10 nM) for 72 h. […] Preabsorption of the antibody with an excess of human recombinant insulin prevented the staining of insulin-positive GLP-1 treated cells (data not shown). While treatment with GLP-1 turned the majority of ARIP cells into […] For β-actin, the annealing temperature was raised to 64° C. for 1 min and gene-specific primers were used. For GLP-1-receptor (GLP-R) the annealing temperature used was 55° C. All other experimental conditions to amplify GLUT2, glucokinase, and GLP-R mRNAs were identical to those described for the amplification of insulin mRNA. RT and PCR conditions for human transcripts were identical to those described for rat mRNAs.
(§3) Southern blotting with species-specific full length cDNA probes for insulin, GLUT-2, glucokinase, GLP-1 receptor and β-actin was performed as previously described. Y. Wang, R. Perfetti, N. H. Greig, H. W. Holloway, K. A. DeOre, C. Montrose-Rafizadeh, D. Elahi, J. M. Egan, “Glucagon-like peptide-1 can reverse the age-related decline in glucose tolerance in rats.” J Clin Invest 99:2883-2889, 1997.

[2] = tested on: PANC-1/IDX-1 cells; assay: RT-PCR of islet β-cell specific transcripts, PANC-1/IDX-1 cells; assay type: cell-based, human
Experimental: (§4) PANC-1 cells were transfected with a pcDNA3 construct (Invitrogen; Carlsbad, Calif.) harboring the wild-type full-length IDX-1 cDNA using LipoTAXI (Catalog N. 204110; Mammalian Transfection Kit, Stratagene; La Jolla, Calif.). Control cells were transfected with the vector alone. The selection of positive (i.e. transfected) cells was carried out by culturing the cells in the presence of 400 μg/ml of G418 sulfate (GN-04, Omega; Tarzana, Calif.).
as §1, §2, §3

[3] = tested on: PANC-1/IDX-1 cells; assay: Immunocytochemistry and immunofluorescence for insulin, PANC-1/IDX-1 cells; assay type: cell-based, human; conditions: GLP-1 10 nM, 72 h
Experimental: as §4
Cells were cultured on monocoated chamber slides (Nalge Nunc International; Naperville, Ill.) in the presence of GLP-1 (10 nM), or vehicle, for 72 h.
For the detection of insulin, cells were washed and fixed with 3% paraformaldehyde for 4 h, at room temperature in PBS, solubilized with 0.1% (vol/vol) Triton X-100 in PBS for 5 min. Cells were then incubated sequentially with an anti-insulin antibody and a secondary antibody, as described by the manufacturer (Biomeda Corp.; Foster City, Calif.). The cells were examined using a Ziess Axiophoto microscope (New York, N.Y.).
Insulin immunofluoresce, for co-immunostaining with IDX-1, was carried on using the […], while the secondary antibody was a goat anti-guinea pig IgG (Molecular Probes, Inc.). The cells were examined using a using a fluorescent microscope (E-800; Nikon, Tokyo).

[4] = tested on: ARIP cells; assay: Morphological changes (hematoxylin and eosin), ARIP cells; assay type: cell-based, rat; conditions: GLP-1 10 nM for 72 h
Description: (§5) Hematoxylin and eosin staining was employed, in some experiments, to show the morphological changes observed under the experimental conditions described below.

[5] = tested on: PANC-1/IDX-1 cells; assay: Morphological changes (hematoxylin and eosin), PANC-1/IDX-1 cells; assay type: cell-based, human; conditions: GLP-1 10 nM for 72 h
Experimental: as §4, §5

[6] = tested on: ARIP and PANC-1 cells; assay: GLP-1 receptor (GLP-R) mRNA by cycle-titration RT-PCR; assay type: cell-based; conditions: GLP-1 10 nM for 72 h, transfected and non-transfected cells
Experimental: FIGS. 9A-C show GLP-1 receptor expression in ARIP and PANC-1 cells. ARIP and PANC-1 cells (transfected with human IDX-1, or solely with the neomycin resistant gene) were cultured in serum-free medium and treated with GLP-1 (10 nM), or vehicle alone, for 72 h. RT-PCR for GLP-R and β-actin was performed with a cycle-titration PCR (15, 20, 25, 30 PCR cycles) to assess the relative abundance of GLP-R transcript. Primers for both transcripts were added together in a single PCR-reaction for each individual sample. […] Each experiment was repeated four times, using RNA samples from independent cultures. The blots on the left represent one individual experiment, while the graphs on the right are the average of four independent experiments. The numeric values in the graphs represent the ratio of GLP-R mRNA to actin mRNA.
Treatment with GLP-1 induces the differentiation of ductal epithelial cells into insulin-producing cells. FIG. 2 illustrates a series of cell cultures grown with or without GLP-1 (10 nM) for 72 h. […] Preabsorption of the antibody with an excess of human recombinant insulin prevented the staining of insulin-positive GLP-1 treated cells (data not shown). While treatment with GLP-1 turned the majority of ARIP cells into glucokinase mRNAs, the same PCR conditions as described above were used in the presence of gene-specific primers. […]

glucagon-like peptide-1 [GLP-1]
time of first detection of GLUT2 mRNA ([1]; GLP-1 10 nM): 24 h | time of first detection of glucokinase mRNA ([1]; GLP-1 10 nM): 72 h | time of first detection of insulin mRNA ([1]; GLP-1 10 nM): 48 h | lowest concentration of GLP-1 required for the initial detection of insulin mRNA ([1]; data not shown): 1 nM | time of GLUT2 mRNA expression ([2]; GLP-1 10 nM): 24 h | time of earliest detection of insulin mRNA ([2]; GLP-1 10 nM): 48 h | time of glucokinase mRNA expression ([2]; GLP-1 10 nM): 72 h | GLP-1 dose at peak of insulin mRNA levels ([2]; data not shown): 10 nM | GLP-1 dose at plateau of insulin mRNA levels ([2]; data not shown): 20 nM | lowest dose of GLP-1 required to detect insulin mRNA ([2]; data not shown): 1 nM | insulin immunostaining [3]: capable of synthesizing insulin | IDX-1 containing cells also positive for intracellular insulin ([3]; double immunofluorescence): Approximately 85% | weakly IDX-1 positive cells not stained by anti-insulin antibody ([3]; double immunofluorescence): ~20% | morphological change [4]: promoted the aggregation of cells in small clusters | morphological change: cell aggregation [5]: further promoted the tendency of forming few-cells aggregates | morphological change: cell size [5]: increase in the size of individual cells | effect on GLP-R mRNA levels [6]: further modest increase (no-statistically significant)
